Source: US8680159B2, “Bradykinin 1 receptor modulating compounds” (Gruenenthal GmbH, priority 2010, dated 2014)

biological target: T1, B1R receptor of the rat (CHO K1 cells stably transfected with the B1R gene of the rat) (Rattus norvegicus, UniProt P97583); experiment: Functional study on the bradykinin receptor 1 (B1R), Ca2+ fluorescence (Fluo-4) FLIPR/Novostar assay, rB1R cells; assay type: cell-based; details: CHO-K1, 10 μM, read-out: % Inhibition (r-B1R) at 10 μM
T1 construct: expressed in transfected cells; host or cells: CHO K1 cells (Chinese hamster ovary), stably transfected
T1 sequence (P97583 1-337): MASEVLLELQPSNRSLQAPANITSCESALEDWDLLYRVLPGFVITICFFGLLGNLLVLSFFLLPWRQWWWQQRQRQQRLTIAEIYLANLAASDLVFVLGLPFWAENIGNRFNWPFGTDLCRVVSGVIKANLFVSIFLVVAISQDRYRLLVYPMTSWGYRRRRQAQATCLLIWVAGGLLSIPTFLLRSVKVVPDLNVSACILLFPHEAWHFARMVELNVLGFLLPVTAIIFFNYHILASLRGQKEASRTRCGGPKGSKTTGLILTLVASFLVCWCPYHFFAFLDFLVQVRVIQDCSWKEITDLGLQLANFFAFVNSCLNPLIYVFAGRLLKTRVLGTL
Procedure, shortened: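 Test compounds (10 μM) were added first and the Ca2+ rise was scored as % activation against Lys-Des-Arg9-bradykinin (≥50 nM, human) or Des-Arg9-bradykinin (≥1 μM, rat). After 6-20 min, the matching agonist was given at its EC80, and % inhibition relative to maximal achievable inhibition was calculated.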

Row | inhibition at 10 µM | SMILES
1 | 105% | CN(C(=O)c1ccc2c(c1)C(NC(=O)Nc1ccc(F)c(Cl)c1)CCC2)C1CCN(c2ccncc2)CC1 (centres unmarked) [CC_H-265, 8-[[(3-Chloro-4-fluoro-phenyl)-carbamoyl]amino]-N-methyl-N-(1-pyridin-4-yl-piperidin-4-yl)-5,6,7,8-tetrahydro-naphthalene-2-carboxylic acid amide]
2 | 63% | Cc1ccc(NC(=O)NC2CCCc3ccc(C(=O)N(C)C4CCN(c5ccncc5)CC4)cc32)c(C)c1 (centres unmarked) [CC_H-266, 8-[[(2,4-Dimethyl-phenyl)-carbamoyl]amino]-N-methyl-N-(1-pyridin-4-yl-piperidin-4-yl)-5,6,7,8-tetrahydro-naphthalene-2-carboxylic acid amide]
3 | 110% | CN(C(=O)NC1CCCc2ccc(C(=O)N(C)C3CCN(c4ccncc4)CC3)cc21)c1ccccc1Cl (centres unmarked) [CC_H-268, 8-[[(2-Chlorophenyl)-methyl-carbamoyl]amino]-N-methyl-N-(1-pyridin-4-yl-piperidin-4-yl)-5,6,7,8-tetrahydro-naphthalene-2-carboxylic acid amide]
4 | 109% | CN(C(=O)NC1CCCc2ccc(C(=O)N(C)C3CCN(c4ccncc4)CC3)cc21)c1ccc(Cl)cc1Cl (centres unmarked) [CC_H-269, 8-[[(2,4-Dichlorophenyl)-methyl-carbamoyl]amino]-N-methyl-N-(1-pyridin-4-yl-piperidin-4-yl)-5,6,7,8-tetrahydro-naphthalene-2-carboxylic acid amide]
5 | 110% | CN(C(=O)c1ccc2c(c1)C(NS(=O)(=O)C1CCCCC1)CCC2)C1CCN(c2ccncc2)CC1 (centres unmarked) [CC_H-270, 8-[(Cyclohexylsulfonyl)amino]-N-methyl-N-(1-pyridin-4-yl-piperidin-4-yl)-5,6,7,8-tetrahydro-naphthalene-2-carboxylic acid amide]
6 | 109% | CC(C)CC(=O)NC1CCCc2ccc(C(=O)N(C)C3CCN(c4ccncc4)CC3)cc21 (centres unmarked) [CC_H-271, N-Methyl-8-(3-methyl-butanoylamino)-N-(1-pyridin-4-yl-piperidin-4-yl)-5,6,7,8-tetrahydro-naphthalene-2-carboxylic acid amide]

More lines, now with the values behind:

Row | SMILES | inhibition at 10 µM
7 | CN(C(=O)c1ccc2c(c1)C(NC(=O)Nc1cccc(Cl)c1Cl)CCC2)C1CCN(c2ccncc2)CC1 (centres unmarked) [CC_H-258, 8-[[(2,3-Dichloro-phenyl)-carbamoyl]amino]-N-methyl-N-(1-pyridin-4-yl-piperidin-4-yl)-5,6,7,8-tetrahydro-naphthalene-2-carboxylic acid amide] | 106%
8 | CN(C(=O)c1ccc2c(c1)C(NC(=O)Nc1cc(Cl)ccc1Cl)CCC2)C1CCN(c2ccncc2)CC1 (centres unmarked) [CC_H-259, 8-[[(2,5-Dichloro-phenyl)-carbamoyl]amino]-N-methyl-N-(1-pyridin-4-yl-piperidin-4-yl)-5,6,7,8-tetrahydro-naphthalene-2-carboxylic acid amide] | 100%
9 | CN(C(=O)c1ccc2c(c1)C(NC(=O)Nc1cc(Cl)cc(Cl)c1)CCC2)C1CCN(c2ccncc2)CC1 (centres unmarked) [CC_H-260, 8-[[(3,5-Dichloro-phenyl)-carbamoyl]amino]-N-methyl-N-(1-pyridin-4-yl-piperidin-4-yl)-5,6,7,8-tetrahydro-naphthalene-2-carboxylic acid amide] | 61%
10 | CN(C(=O)c1ccc2c(c1)C(NC(=O)Nc1cc(C(F)(F)F)ccc1Cl)CCC2)C1CCN(c2ccncc2)CC1 (centres unmarked) [CC_H-261, 8-[[[2-Chloro-5-(trifluoromethyl)-phenyl]-carbamoyl]amino]-N-methyl-N-(1-pyridin-4-yl-piperidin-4-yl)-5,6,7,8-tetrahydro-naphthalene-2-carboxylic acid amide] | 103%
11 | CN(C(=O)c1ccc2c(c1)C(NC(=O)Nc1ccc(Cl)cc1Cl)CCC2)C1CCN(c2ccncc2)CC1 (centres unmarked) [CC_H-262, 8-[[(2,4-Dichlorophenyl)-carbamoyl]amino]-N-methyl-N-(1-pyridin-4-yl-piperidin-4-yl)-5,6,7,8-tetrahydro-naphthalene-2-carboxylic acid amide] | 82%
